Experimental data as given in US10413538B2, “Administration of karenitecin for the treatment of platinum and/or taxane chemotherapy-resistant or -refractory advanced ovarian cancer” (priority 2013, dated 2019).
Entries after “also recorded” stand apart in the source; their conditions may differ. Where two headings read alike, the source gives them in different places.

Assays:
[1] = human, in vivo; cited from earlier work
[2] = dog, in vivo, po
[3] = Lactone stability and lactone half-life in humans/plasma; type: in vivo, human
[4] = target: T1, Topoisomerase I (Homo sapiens, UniProt P11387); test: Topoisomerase I inhibition; type: biochemical
T1 sequence (P11387 1-765): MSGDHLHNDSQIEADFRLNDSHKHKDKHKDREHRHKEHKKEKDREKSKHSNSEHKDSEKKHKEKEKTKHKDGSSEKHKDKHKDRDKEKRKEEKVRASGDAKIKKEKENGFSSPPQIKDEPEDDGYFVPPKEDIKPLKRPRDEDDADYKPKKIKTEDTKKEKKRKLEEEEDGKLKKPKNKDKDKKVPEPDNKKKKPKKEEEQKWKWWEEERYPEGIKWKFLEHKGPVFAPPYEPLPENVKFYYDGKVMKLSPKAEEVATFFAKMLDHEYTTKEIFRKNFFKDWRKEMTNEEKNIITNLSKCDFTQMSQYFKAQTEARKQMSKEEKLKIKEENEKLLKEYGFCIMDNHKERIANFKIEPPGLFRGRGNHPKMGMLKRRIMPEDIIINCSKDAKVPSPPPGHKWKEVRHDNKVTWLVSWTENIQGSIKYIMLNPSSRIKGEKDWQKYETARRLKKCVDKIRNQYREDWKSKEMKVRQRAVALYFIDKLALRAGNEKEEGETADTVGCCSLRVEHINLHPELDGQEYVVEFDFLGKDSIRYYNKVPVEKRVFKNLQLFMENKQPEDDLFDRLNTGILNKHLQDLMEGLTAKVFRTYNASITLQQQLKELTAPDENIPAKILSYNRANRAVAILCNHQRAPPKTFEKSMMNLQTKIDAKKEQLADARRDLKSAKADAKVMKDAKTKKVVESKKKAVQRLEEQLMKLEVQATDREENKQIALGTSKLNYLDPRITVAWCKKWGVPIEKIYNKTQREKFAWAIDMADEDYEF

[5] = system: stage III/IV advanced epithelial ovarian cancer resistant or refractory to platinum- and taxane-based chemotherapy; test: Phase III clinical study of Karenitecin versus Topotecan: efficacy (PFS, OS); type: in vivo, human
Procedure: The Primary Endpoint of the disclosed Phase III clinical study was Progression Free Survival (“PFS”); which was defined as the time period from the date of randomization to the date of first radiographically documented Progressive Disease (“PD”) or date of death due to any cause, taking either event date that occurred first. The date of PD was determined by radiographical objective disease (RECIST) measurement method. The Secondary Endpoints of the disclosed Phase III clinical study included: (i) Overall Survival (hereinafter “OS”), defined as the time from the date of randomization to the date of death due to any cause; (ii) Incidence of anemia, defined as the proportion of patients who experience ≥grade 3 anemia based on National Cancer Institute Common Terminology Criteria for Adverse Events (NCI-CTCAE) criteria at any time post-baseline after receiving study treatment; (iii) Incidence of neutropenia (including febrile neutropenia), defined as the proportion of patients who experience ≥grade 3 neutropenia based on NCI-CTCAE criteria at any time post-baseline after receiving study treatment; and (iv) Incidence of thrombocytopenia, defined as the proportion of patients who experience ≥grade 3 thrombocytopenia based on NCI-CTCAE criteria at any time post-baseline after receiving study treatment.
All patients admitted to this Phase III clinical trial were documented to be platinum- and/or taxane-resistant or refractory and have incurable disease. […] It is important to note that, currently, there is no FDA-approved chemotherapeutic drug for this specific aforementioned indication.
Approximately 80 study centers participated in this Phase III clinical study. The primary endpoint was Progression Free Survival (PFS), defined as the time period from the date of randomization to the date of first radiographically documented progressive disease or disease progression (“PD”) or date of death due to any cause, taking the event date that occurs first.
The primary endpoint was Progression Free Survival (PFS); defined as the time period from the date of randomization to the date of first radiographically documented progressive disease (PD) or date of death due to any cause, taking the event date that occurs first. The date of PD was determined by radiographically objective disease (RECIST) measurement. Secondary Endpoints: • Overall Survival (OS), defined as the time from the date of randomization to the date of death due to any cause. • Incidence of anemia, defined as the proportion of patients who experience ≥grade 3 anemia based on National Cancer Institute Common Terminology Criteria for Adverse Events (NCI-CTCAE) criteria at any time post-baseline after receiving study treatment. • Incidence of neutropenia (including febrile neutropenia), defined as the proportion of patients who experience ≥grade 3 neutropenia based on NCI-CTCAE criteria at any time post-baseline after receiving study treatment. • Incidence of thrombocytopenia, defined as the proportion of patients who experience ≥grade 3 thrombocytopenia based on NCI-CTCAE criteria at any time post-baseline after receiving study treatment.
Patients underwent procedures throughout four (4) defined periods in this study, which are briefly described below. Various clinical, laboratory, and disease evaluations were required for each of these for each periods.
Period I (Screening and Randomization): Patient eligibility was determined by compliance with protocol-specified inclusion and exclusion criteria. Patients who signed the informed consent, and successfully complete the screening process, including documentation of disease status by radiographic measures, were randomized to receive study treatment.
Period III (End of Treatment): Within ±3 days of date of treatment discontinuation, end-of treatment procedures will be conducted during Period III.

[6] = human, in vivo
Procedure: The primary endpoint was Progression Free Survival (PFS); defined as the time period from the date of randomization to the date of first radiographically documented progressive disease (PD) or date of death due to any cause, taking the event date that occurs first. The date of PD was determined by radiographically objective disease (RECIST) measurement. […]
Simultaneous statistical analyses were performed on the clinical trial data from the time points when 254 and 338 Progression Free Survival (PFS) events occurred during the aforementioned Karenitecin Phase III Trial and the following results were observed. […] The PFS benefit for Karenitecin in comparison to Topotecan was determined using an Independent Review Committee (IRC).

[7] = system: MDR/MRP, Breast Cancer Resistance Protein (BCRP); details: cited from earlier work
[8] = system: MDR/MRP, Breast Cancer Resistance Protein (BCRP)
[9] = Glucuronidation / metabolism; type: in vitro ADME
[10] = Phase I clinical studies of intravenous Karenitecin (safety, dose-limiting toxicity); type: in vivo, human
Procedure: Results from three Phase I studies indicate that Karenitecin can be safely administered to patients at the dose level of 1.0 mg/m^2/day I.V. over a one hour period of time for 5 consecutive days in a 3-week treatment cycle. […] Any gastrointestinal toxicity is generally ≤grade 2 and is not dose-limiting.
Intravenous administration of Karenitecin has been evaluated in three Phase I clinical studies in patients with the following cancer types: (i) advanced solid tumors (adult patients) (see, e.g., Schilsky, R. L., Hausheer, F. H., et al., Phase I trial of Karenitecin administered intravenously daily for five consecutive days in patients with advanced solid tumors using accelerated dose titration [abstract]. ASCO Abstract 758 (2000)); (ii) refractory or recurrent solid tumors (pediatric patients); and (iii) recurrent malignant glioma (adult patients). […]

[11] = Preclinical toxicology, oral single daily doses for five consecutive days; details: beagle dogs
[12] = system: panel of over twenty (20) human cancer cell lines; test: In vitro studies on a panel of human cancer cell lines; type: cell-based
[13] = system: advanced ovarian cancer; test: Phase II study in advanced ovarian cancer patients who had failed prior treatments; type: in vivo, human
Description: Intravenous administration of Karenitecin has been evaluated in three Phase I clinical studies in patients with the following cancer types: (i) advanced solid tumors (adult patients) (see, e.g., Schilsky, R. L., Hausheer, F. H., et al., Phase I trial of Karenitecin administered intravenously daily for five consecutive days in patients with advanced solid tumors using accelerated dose titration [abstract]. ASCO Abstract 758 (2000)); (ii) refractory or recurrent solid tumors (pediatric patients); and (iii) recurrent malignant glioma (adult patients). Intravenous administration of Karenitecin has also been evaluated in four Phase 2 clinical studies in adult patients with the following cancer types: (i) primary malignant glioma; (ii) treatment of persistent or recurrent epithelial ovarian or primary peritoneal carcinoma in heavily pre-treated patients; (iii) malignant melanoma (see, e.g., Hausheer, F. H., et al., Phase II trial of Karenitecin (BNP1350) in malignant melanoma: clinical and translational study [abstract]. ASCO Abstract 7554 (2004); and (iv) relapsed or refractory non-small cell lung cancer (see, e.g., Miller, A. A., et al., MR for the Cancer and Leukemia Group B. Phase II trial of Karenitecin in patients with relapsed or refractory advanced non-small cell lung cancer (CALGB 30004) Lung Cancer 48:399-407 (2005)).

[14] = in vivo, iv
[15] = system: resistant subline of cells containing less than 4% of the topoisomerase I activity; details: subline with <4% topoisomerase I activity; cited from earlier work
[16] = system: MDR-expressing sublines; details: P-glycoprotein-associated MDR phenotype; cited from earlier work

Nc1ccn([C@@H]2O[C@H](CO)[C@@H](O)C2(F)F)c(=O)n1 [Gemcitabine]
patients with neutropenia [1]: up to 90%

CC[C@@]1(O)C(=O)OCc2c1cc1n(c2=O)Cc2c-1nc1ccccc1c2CC[Si](C)(C)C [Karenitecin, (4S)-4-ethyl-4-hydroxy-11-[2-(trimethylsilyl)ethyl]-1H-pyrano[3′:4′:6,7]indolizino[1,2-b]quinoline-3,14(4H,12H)-dione]
toxicities observed [2]: anorexia; weight loss; gastrointestinal toxicity (manifested as diarrhea with hemorrhage); occasional vomiting; and myelosuppression
half-life in active lactone form in plasma compared with other commercially-available camptothecins [3]: longer half-life in its active lactone form in plasma
Topoisomerase I inhibition [4]: potent inhibitor of Topoisomerase I
overall survival hazard ratio, Karenitecin vs Topotecan ([5]; Adenocarcinoma (grade ≥2) not otherwise specified, P-value 0.7893): 0.898
PFS HR, Karenitecin vs Topotecan ([5]; Adenocarcinoma (grade ≥2) not otherwise specified, P-value=0.3700): 0.684
PFS HR, Karenitecin vs Topotecan ([5]; Best response SD after 6 cycles in a first-line setting, P-value=0.9908): 0.992
PFS HR, Karenitecin vs Topotecan ([5]; ECOG Performance Status 0, P-value=0.0249): 0.662
PFS HR, Karenitecin vs Topotecan ([5]; ECOG Performance Status 2, P-value=0.7481): 0.896
PFS HR, Karenitecin vs Topotecan ([5]; FIGO Stage 111B, P-value=0.6225): 0.722
overall survival hazard ratio, Karenitecin vs Topotecan ([5]; FIGO Stage IV, P-value 0.4516): 0.892
PFS HR, Karenitecin vs Topotecan ([5]; FIGO Stage IV, all events, P-value=0.0556): 0.741
PFS HR, Karenitecin vs Topotecan ([5]; FIGO Stage IV, first 254 PFS events, P-value=0.0260): 0.669
overall survival hazard ratio, Karenitecin vs Topotecan ([5]; Histological Stage: G1-well differentiated, P-value 0.974): 0.9612
PFS HR, Karenitecin vs Topotecan ([5]; Histological Stage: G1-well differentiated, P-value=0.8561): 0.904
PFS HR, Karenitecin vs Topotecan ([5]; Histological Stage: G2-moderately differentiated, P-value=0.2982): 0.835
overall survival hazard ratio, Karenitecin vs Topotecan ([5]; Histopathology Class: Undifferentiated carcinoma, P-value 0.701): 0.6426
median PFS advantage in favor of Karenitecin ([5]; Histopathology class: Mucinous adenocarcinoma subtype): 2 month
overall survival hazard ratio, Karenitecin vs Topotecan ([5]; Histopathology class: Mucinous adenocarcinoma, P-value 0.7321): 0.841
PFS HR, Karenitecin vs Topotecan ([5]; Histopathology class: serous adenocarcinoma, P-value=0.2829): 0.873
PFS HR, Karenitecin vs Topotecan ([5]; Ovary as primary site of disease, P-value=0.2606): 0.885
median progression-free survival (PFS) advantage in favor of Karenitecin (as compared with Topotecan) ([5]; overall trial population, IRC): greater than 6 week
PFS Hazard Ratio (HR), Karenitecin vs Topotecan ([5]; overall trial population, P-value=0.261): 0.885
PFS HR, Karenitecin vs Topotecan ([5]; resistant subject sub-population, P-value=0.144): 0.822
PFS HR, Karenitecin vs Topotecan ([5]; subpopulation refractory or resistant and/or mucinous, first 254 PFS events, P-value=0.0849): 0.770
Grade 3 or 4 anemia events reduced in comparison to the Topotecan arm ([6]; female, 5 days): 27.3%
Grade 3 or 4 thrombocytopenia events reduced in comparison to the Topotecan arm ([6]; female, 5 days): 37.4%
grade 4 neutropenia reduced in comparison to the Topotecan arm ([6]; female, 5 days): 38.2%
safety concerns as monitored by the independent Data and Safety Monitoring Board (DSMB) [6]: no safety concerns related to Karenitecin were noted
sensitivity to tumor-mediated drug resistance mechanisms including BCRP [7]: insensitive to all commonly-known tumor-mediated drug resistance mechanisms
susceptibility to MDR/MRP drug resistance [8]: lacks susceptibility to MDR/MRP drug resistance
A-ring or B-ring glucuronidation [9]: does not undergo A-ring or B-ring glucuronidation
principal and dose-limiting toxicity ([10]; Phase I, 1.0 mg/m^2/day I.V. over one hour, 5 consecutive days, 3-week cycle): non-cumulative, reversible myelosuppression; also recorded: reversible and non-cumulative neutropenia and thrombocytopenia
serious hypersensitivity reactions reported by patients ([10]; patients receiving Karenitecin to date): no serious hypersensitivity reactions
oral MTD relative to intravenous (I.V.) MTD [11]: approximately 2 times
concentrations for inhibiting the growth of human and animal tumor cells in vitro [12]: nanomolar or sub-nanomolar concentrations
antitumor potency compared with Topotecan or SN-38 ([12]; over twenty human cancer cell lines): significantly more potent antitumor agent than either Topotecan or SN-38
Time to Progression (TTP) compared with historical results reported with Topotecan [13]: prolonged Time to Progression (TTP)
toxicities observed [14]: reversible myelosuppression (predominantly neutropenia), diarrhea, emesis and mucositis (canine)

CC[C@@]1(O)C(=O)OCc2c1cc1n(c2=O)Cc2cc3ccccc3nc2-1 [camptothecin]
decrease in sensitivity of resistant subline versus wild-type parental cells [15]: 1000 fold

COc1cccc2c1C(=O)c1c(O)c3c(c(O)c1C2=O)C[C@@](O)(C(=O)CO)C[C@@H]3O[C@H]1C[C@H](N)[C@H](O)[C@H](C)O1 [doxorubicin]
resistance of MDR-expressing sublines relative to parental wild-type cells [16]: 200 fold

COc1cc([C@@H]2c3cc4c(cc3[C@@H](O[C@@H]3O[C@@H]5CO[C@@H](C)O[C@H]5[C@H](O)[C@H]3O)[C@H]3COC(=O)[C@H]23)OCO4)cc(OC)c1O [etoposide]
resistance of MDR-expressing sublines relative to parental wild-type cells [16]: 200 fold
